In experiment [1] the target is SARS-CoV-2 Main Protease (SARS-CoV-2) (UniProt P0DTD1).
The target is the same in experiment [2]. The source holds these as a separate data set.

As usually defined, the inhibition is the relative decrease from the control value, in per cent. For the molecule `CNCCN(C)C(=O)C(=O)N1Cc2ccccc2C(c2ccccc2)C1` (centres undefined), the inhibition in experiment [1] (20.0 µM) is -1.83%; in experiment [1] (50.0 µM) it was -2.83%; in experiment [2] (50.0 µM) it was 0%.
Broadly, the IC50 is the concentration that gives 50% inhibition. Turning to `CCOC(=O)c1c(C)n(S(C)(=O)=O)c2ccc(N(C(=O)c3ccco3)S(C)(=O)=O)cc12`, the results for the inhibition in experiment [1] (20.0 µM) and in experiment [1] (50.0 µM) were 67.5% and 98.6%, respectively. The molecule also displayed an IC50 in experiment [2] of 0.147 µM.
For `Cc1nc[nH]c1CN1CCN(Cc2cccc(Cl)c2)C1=O`, the inhibition was -0.267% in experiment [1] (20.0 µM), 2.39% in experiment [1] (50.0 µM) and 0% in experiment [2] (50.0 µM).
With `N#Cc1cccc(CN2C(=O)C(=O)c3cccc(Br)c32)c1`, the inhibition is -5.42% in experiment [1] (20.0 µM), -2.38% in experiment [1] (50.0 µM) and 91.2% in experiment [2] (50.0 µM). The IC50 in experiment [2] turned out to be 0.017 µM.
`CN1CCN(C(=O)Cc2c[nH]c3ncc(C(=O)NCCc4c[nH]c5ccc(F)cc45)cc23)CC1`: the inhibition was -1.5% in experiment [1] (20.0 µM), 7.57% in experiment [1] (50.0 µM) and 8.74% in experiment [2] (50.0 µM).
In the same order, the values of `NCCn1cc(C(=O)N2CC3(CCC3)c3cc(Br)ccc32)cn1` are -2.84%, 7.52% and 0%.
Turning to `Cc1cccc(COC(=O)c2cccc3c2NC(=O)C3=O)c1`, the figures for the inhibition in experiment [1] (20.0 µM), in experiment [1] (50.0 µM) and in experiment [2] (50.0 µM) were -1.1%, 0.0384% and 83.7%, respectively. This molecule also gave an IC50 in experiment [2] of 17.3 µM.
Turning to `O=C(Nc1nncn1C1CC1)C1CCS(=O)(=O)c2ccccc21` (centres undefined), the inhibition in experiment [1] (20.0 µM) is 37.6%; in experiment [1] (50.0 µM) it was 74.6%. For the same molecule, the IC50 in experiment [2] stood at 26.8 µM.
Consider `O=C(Cc1cccc(Cl)c1)Nc1cccnc1`, for which the inhibition is 24.1% in experiment [1] (20.0 µM), 40.9% in experiment [1] (50.0 µM) and 52.4% in experiment [2] (50.0 µM).
Turning to `CC(C)Cn1cc(NC(=O)NCCc2ccc(Cl)cc2)c2ccccc2c1=O`, the inhibition in experiment [1] (20.0 µM) was 22.5%; in experiment [1] (50.0 µM) it was -1.58%. Further, the IC50 in experiment [2] worked out at 95.9 µM.
On to `O=C(CCl)N1CCN(Cc2cnc(-c3ccccc3)nc2)CC1`, for which the inhibition in experiment [1] (20.0 µM) worked out at 6.18%; in experiment [1] (50.0 µM) it was 15.7%; in experiment [2] (50.0 µM) it was 0%.
As to `COc1ccccc1OCCNC(=O)c1cc(=O)[nH]c2cccc(F)c12`, the inhibition in experiment [1] (20.0 µM) came out at 8.74%; in experiment [1] (50.0 µM) it was 12.5%. In experiment [2], this molecule had an IC50 of 1.83 µM.
In the same order, the values of `Cc1cc(C)c(C#N)c(Sc2ncnc3c2nnn3Cc2ccccc2)n1` are 79%, 97.7% and 0.255 µM.
In the same order, the values of `CCCCN(CCCNC(=O)Nc1cn(CC(C)C)c(=O)c2ccccc12)c1ccccc1` are -4.26%, -3.25% and 82.7 µM.
Regarding `O=C(Cc1cccc(Cl)c1)Nc1cncc2c1CCCC2`, in experiment [2], the IC50 was determined as 1.84 µM.
With `O=C(NC[C@@]1(COc2ccc(C(F)(F)F)cn2)C[C@@H](O)[C@@H](O)C1)Nc1cccnc1`, the inhibition in experiment [2] (50.0 µM) came out at 0%.
In experiment [2], `CN(C)c1ccc(N(Cc2cscn2)C(=O)Cn2nnc3ccccc32)cc1` yielded an IC50 of 14.3 µM.
As for `Cc1ccncc1NC(=O)Cc1cc(Cl)cc(OCc2n[nH]c3ccccc23)c1`, the inhibition in experiment [2] (50.0 µM) stood at 9.6%.
In experiment [2], `Cc1ccncc1NC(=O)Cc1cc(Cl)cc(-c2ccc(S(C)(=O)=O)cc2Cl)c1` registered a half-inhibitory concentration (IC50) of 19.5 µM.
On the same count and under the same terms, the same measure for `O=C(c1cncc2ccccc12)N1CCN(c2cccc(Cl)c2)CC1`: 0.833 µM.
Same read-out and setting: the figure for `O=C(Cc1cc(Cl)cc(CC2CC(=O)N2)c1)Nc1cncc2ccccc12` (centres undefined) is 4.42 µM; for `Nc1nn(C(=O)Cc2cccc(Cl)c2)c2ccc(F)cc12` it is 94.2 µM.
In the case of `O=C(c1cc(=O)[nH]c2ccccc12)N1CCN(c2cccc(C(F)(F)F)c2)CC1`, the IC50 in experiment [2] turned out to be 5.65 µM. In addition, the inhibition in experiment [2] (50.0 µM) was determined as 71%.
Taken in the same sequence, the figures for `Cc1cc(C(=O)CCl)c(C)n1CC1COc2ccccc2O1` (centres undefined) were 4.15 µM and 82.2%.
Molecule `Cc1ccncc1NC(=O)Cc1cc(Cl)cc(NCC(C)(C)C#N)c1` showed an IC50 in experiment [2] of 32.9 µM.
Consider `Cc1ccc(NC2=C(c3ccccc3)C(=O)N(Cc3cccnc3)C2=O)cc1C`, for which the IC50 in experiment [2] amounted to 43.5 µM.
Still for that read-out and setting: the figure for `Cc1ccncc1NC(=O)C(C)c1cc(Cl)cc(OC2CC(=O)N2)c1` (centres undefined) is 88.1 µM.
`O=C(Nc1cncc2ccccc12)C1COc2ccc(Cl)cc21` (centres undefined) had an IC50 in experiment [2] of 0.509 µM. Further, in experiment [2] (50.0 µM), the inhibition stood at 77%.
Taken in the same sequence, the figures for `O=C(Cn1nnc2ccccc21)Nc1cccc(Cl)c1` were 29.4 µM and 55.1%.
In experiment [2], `Cc1ccc(NC2=C(c3ccccc3)C(=O)N(Cc3cccnc3)C2=O)c(C)c1` gave an IC50 of 54.6 µM.
Same read-out and setting: the same measure for `O=C(Cc1cccc(Cl)c1)Nc1cncc2c1CCCN2`: 4.04 µM.
Molecule `Cc1ccncc1NC(=O)Cc1cc(Cl)cc(NS(N)(=O)=O)c1` gave an IC50 in experiment [2] of 14.5 µM. The inhibition in experiment [2] (50.0 µM) is 87.9%.
For `O=C(Cc1cccc(Cl)c1)Nn1nnc2ccccc21`, the IC50 in experiment [2] is 31 µM.
`Cc1ccncc1NC(=O)Cc1cc(Cl)cc(-c2ccc(C3CC3(F)F)cc2)c1` (centres undefined): the IC50 in experiment [2] was 2.83 µM.
With `O=C(c1cc(=O)[nH]c2ccccc12)N1CCN(Cc2cccc(C(F)(F)F)c2)CC1`, the inhibition in experiment [2] (50.0 µM) turned out to be 24.8%.
Consider `Cc1ccncc1NC(=O)Cc1cc(Cl)cc(NS(C)(=O)=O)c1`, for which the inhibition in experiment [2] (50.0 µM) was found to be 54.6%.
Molecule `Cc1ccncc1NC(=O)Cc1cc(Cl)cc(NC2(C)CCC(F)(F)CC2)c1` gave an IC50 in experiment [2] of 45.5 µM.
Consider `COc1ccc(Cl)cc1OCCNC(=O)c1cc(=O)[nH]c2cccc(OC)c12`, for which the IC50 in experiment [2] is 0.19 µM.
`COc1ccc2c(N)nn(C(=O)C3CCOc4ccc(Cl)cc43)c2c1` (centres undefined): the IC50 in experiment [2] turned out to be 62.1 µM.
On the same count and under the same terms, the figure for `O=C(Nc1ccc(Cl)cc1)[C@@H](c1ccccc1)N1Cc2ccccc2C1=O` (stereo in doubt) is 65 µM.
In the case of `COc1ccc2nnn(CC(=O)N(Cc3ccccn3)c3ccc(C4CCNCC4)cc3)c2c1`, the IC50 in experiment [2] was determined as 32.2 µM. In addition, the inhibition in experiment [2] (50.0 µM) worked out at 94.8%.
In the case of `CCC(=O)Nc1ccc(N(Cc2ccccc2)C(=O)Nn2nnc3ccccc32)cc1`, the IC50 in experiment [2] amounted to 3.73 µM.
As to `N#Cc1ccccc1NC(=O)[C@@H](c1ccccc1)N1Cc2ccccc2C1=O` (stereo in doubt), the IC50 in experiment [2] is 57.9 µM.
Same read-out and setting: the figure for `O=C(Nc1c[nH]c(=O)c2ccccc12)C1CCOc2ccc(Cl)cc21` (centres undefined) is 83.7 µM; for `CN(C)c1ccc(N(Cc2cccc(Cl)c2)C(=O)Cn2nnc3ccccc32)cc1` it is 0.391 µM.
Turning to `CC(=O)Nc1cccc(N2CCCC2=O)c1`, the results for the inhibition in experiment [2] (20.0 µM) and in experiment [2] (50.0 µM) were 11.4% and 22.7%, respectively.
In turn, `Cc1c(N)cncc1NC(=O)Cc1cccc(Cl)c1` displayed an IC50 in experiment [2] of 8.2 µM.
Same read-out and setting: the figure for `Cc1ccncc1NC(=O)C(CO)c1cccc(Cl)c1` (centres undefined) is 47.3 µM.
For `CC(C)[C@H](NC(=O)OCc1ccccc1)C(=O)NC(C=O)Cc1ccccc1` (stereo in doubt), the inhibition in experiment [2] (50.0 µM) is 0%.
`O=C(Cc1cccc(Cl)c1)Nc1cccc2[nH]ncc12` yielded an IC50 in experiment [2] of 23.6 µM.
Take `Cc1ccncc1NC(=O)Cc1cc(Cl)cc(-c2cnn(C)c2C(F)F)c1`: in experiment [2], the concentration for half-maximal inhibition (IC50) was determined as 16 µM.
Take `O=C(CC(C[S][Au])C(=O)[O][Na])[O][Na]` (centres undefined): the inhibition in experiment [2] (50.0 µM) was found to be 39.1%.
The molecule `O=C(Nc1cccnc1)[C@@H](c1ccccc1)N1Cc2ccccc2C1=O` (stereo in doubt) came in with an IC50 in experiment [2] of 59.6 µM.
In experiment [2], `N#Cc1ncn(CC(=O)Nc2ccc(Br)cc2Cl)n1` showed an IC50 of 2.87 µM.
On to `C[C@@H]1C[C@@H](C(=O)Nc2cncc3ccccc23)c2cc(Cl)ccc2O1` (stereo in doubt), for which the IC50 in experiment [2] is 0.524 µM.
With `Cc1oncc1C(=O)Nc1ccc(C(F)(F)F)cc1`, the inhibition in experiment [2] (50.0 µM) came out at 0%.
`Cc1ccncc1NC(=O)Cc1cc(Cl)cc(NC2CC2C(F)(F)F)c1` (centres undefined) yielded an IC50 in experiment [2] of 19.7 µM.

Source of the values: the COVID Moonshot data (paper PMC11187573), “Identification of SARS-CoV-2 Mpro inhibitors through deep reinforcement learning for de novo drug design and computational chemistry approaches” (RSC Medicinal Chemistry, 2024).
